Tests used:
Hepatitis C virus [1] = assay: Antiviral activity against Hepatitis C virus genotype 1b in Huh-luc/neo-ET replicon cells after 48 hrs by replicon-based luciferase assay; type: functional, organism-based, Hepacivirus hominis
Hepatitis C virus [2] = assay: Antiviral activity against Hepatitis C virus genotype 1a in Huh-luc/neo-ET replicon cells after 48 hrs by replicon-based luciferase assay; type: functional, organism-based, Hepacivirus hominis; settings: subtype 1a
Hepatitis C virus [3] = assay: Antiviral activity against Hepatitis C virus genotype 1b harboring NS5A Y93H mutant gene in Huh-luc/neo-ET replicon cells after 48 hrs by transient replicon mutant-based luciferase assay; type: functional, organism-based, Hepacivirus hominis
Hepatitis C virus [4] = assay: Antiviral activity against Hepatitis C virus genotype 1b harboring NS5A L31V mutant gene in Huh-luc/neo-ET replicon cells after 48 hrs by transient replicon mutant-based luciferase assay; type: functional, organism-based, Hepacivirus hominis
Hepatitis C virus [5] = assay: Antiviral activity against Hepatitis C virus genotype 1b harboring NS5A L28V mutant gene in Huh-luc/neo-ET replicon cells after 48 hrs by transient replicon mutant-based luciferase assay; type: functional, organism-based, Hepacivirus hominis
Hepatitis C virus [6] = assay: Ratio of EC50 for Hepatitis C virus genotype 1b harboring NS5A Y93H mutant gene to EC50 for Hepatitis C virus genotype 1b harboring wild type NS5A in Huh-luc/neo-ET replicon cells by replicon-based luciferase assay; type: functional, Hepacivirus hominis
Hepatitis C virus [7] = assay: Ratio of EC50 for Hepatitis C virus genotype 1b harboring NS5A L31V mutant gene to EC50 for Hepatitis C virus genotype 1b harboring wild type NS5A in Huh-luc/neo-ET replicon cells by replicon-based luciferase assay; type: functional, Hepacivirus hominis

| Compound | EC50 (Hepatitis C virus [1]) | EC50 (Hepatitis C virus [2]) | also measured |
| --- | --- | --- | --- |
| CC[C@H](NC(=O)OC)C(=O)N1C(c2ncc(-c3ccc(-c4ccc(-c5cnc([C@@H]6CCCN6C(=O)[C@@H](NC(=O)OC)C(C)C)[nH]5)cc4)cc3)[nH]2)CCC12CCC(F)(F)CC2 (stereo partly specified) | 0.0158 nM | 1 nM |  |
| COC(=O)N[C@H](C(=O)N1CC2(CCN(C(=O)OC)CC2)CC1c1ncc(-c2ccc(-c3ccc(-c4cnc([C@@H]5CCCN5C(=O)[C@@H](NC(=O)OC)C(C)C)[nH]4)cc3)cc2)[nH]1)C(C)C (mixture of isomers) | 0.0158 nM | 0.794 nM |  |
| COC(=O)N[C@@H](C)C(=O)N1CC2(C[C@H]1c1ncc(-c3ccc(-c4ccc(-c5cnc([C@@H]6CCCN6C(=O)[C@@H](NC(=O)OC)C(C)C)[nH]5)cc4)cc3)[nH]1)OCCCO2 | 0.02 nM | 0.0794 nM |  |
| COC(=O)N[C@H](C(=O)N1CCC[C@H]1c1ncc(-c2ccc(-c3ccc(-c4cnc(C5CCC6(CCC(F)(F)CC6)N5C(=O)[C@@H](NC(=O)OC)C(C)C)[nH]4)cc3)cc2)[nH]1)C(C)C (stereo partly specified) | 0.0158 nM | 1.58 nM |  |
| O=C(Nc1nc(-c2ccccc2)cs1)[C@@H]1CCCN1C(=O)OCc1ccccc1 | 2510 nM | > 20000 nM |  |
| COC(=O)N[C@H](C(=O)N1CCC[C@H]1c1ncc(-c2ccc(-c3ccc(-c4cnc(C5CCC6(CCC(F)(F)CC6)N5C(C)=O)[nH]4)cc3)cc2)[nH]1)C(C)C (stereo partly specified) | 0.1 nM | 25.1 nM |  |
| COC(=O)N[C@H](C(=O)N1CCC[C@H]1c1ncc(-c2ccc(-c3ccc(-c4cnc([C@@H]5CC6(CCC(F)(F)CC6)CN5C(=O)[C@@H](NC(=O)OC)C(C)C)[nH]4)cc3)cc2)[nH]1)C(C)C | 0.00251 nM | 0.0398 nM | EC50 (Hepatitis C virus [3]): 1 nM; EC50 (Hepatitis C virus [4]): 0.2 nM; EC50 (Hepatitis C virus [5]): 0.00158 nM; Ratio EC50 (Hepatitis C virus [6]): >=30; Ratio EC50 (Hepatitis C virus [7]): >=25 |
| COC(=O)N[C@H](C(=O)N1CC2(CC1c1ncc(-c3ccc(-c4ccc(-c5cnc([C@@H]6CCCN6C(=O)[C@@H](NC(=O)OC)C(C)C)[nH]5)cc4)cc3)[nH]1)CN(C(=O)OC)C2)C(C)C (mixture of isomers) | 0.0501 nM | 2 nM |  |
| COC(=O)N[C@H](C(=O)N1CC2(CNC2)CC1c1ncc(-c2ccc(-c3ccc(-c4cnc([C@@H]5CCCN5C(=O)[C@@H](NC(=O)OC)C(C)C)[nH]4)cc3)cc2)[nH]1)C(C)C (mixture of isomers) | 0.126 nM | 3.16 nM |  |
| COC(=O)N[C@H](C(=O)N1CC2(CCS(=O)(=O)CC2)CC1c1ncc(-c2ccc(-c3ccc(-c4cnc([C@@H]5CCCN5C(=O)[C@@H](NC(=O)OC)C(C)C)[nH]4)cc3)cc2)[nH]1)C(C)C (mixture of isomers) | 0.0398 nM | 0.398 nM |  |
| COC(=O)N[C@H](C(=O)N1CC2(CCOCC2)C[C@H]1c1ncc(-c2ccc(-c3ccc(-c4cnc([C@@H]5CC6(CCOCC6)CN5C(=O)[C@@H](NC(=O)OC)C(C)C)[nH]4)cc3)cc2)[nH]1)C(C)C | 0.0126 nM | 0.02 nM | EC50 (Hepatitis C virus [3]): 0.126 nM; EC50 (Hepatitis C virus [4]): 0.02 nM; EC50 (Hepatitis C virus [5]): 0.00631 nM; Ratio EC50 (Hepatitis C virus [6]): >=30; Ratio EC50 (Hepatitis C virus [7]): <=5 |
| O=C(NC1CC1)c1ccc(-c2csc(NC(=O)[C@@H]3CCCN3C(=O)OCc3ccccc3)n2)cc1 | 126 nM | > 20000 nM |  |
| O=C(Nc1cccnc1)c1ccc(-c2csc(NC(=O)[C@@H]3COC4(CCOCC4)N3C(=O)OCc3ccccc3)n2)cc1 | 0.251 nM | > 20000 nM |  |
| CNC(=O)N1CC2(CC(c3ncc(-c4ccc(-c5ccc(-c6cnc([C@@H]7CCCN7C(=O)[C@@H](NC(=O)OC)C(C)C)[nH]6)cc5)cc4)[nH]3)N(C(=O)[C@@H](NC(=O)OC)C(C)C)C2)C1 (mixture of isomers) | 0.251 nM | 6.31 nM |  |
| COC(=O)N[C@H](C(=O)N1CC2(CC1c1ncc(-c3ccc(-c4ccc(-c5cnc([C@@H]6CCCN6C(=O)[C@@H](NC(=O)OC)C(C)C)[nH]5)cc4)cc3)[nH]1)CN(C(C)=O)C2)C(C)C (mixture of isomers) | 0.158 nM | 1.26 nM |  |
| COC(=O)N[C@H](C(=O)N1CC2(CCNCC2)CC1c1ncc(-c2ccc(-c3ccc(-c4cnc([C@@H]5CCCN5C(=O)[C@@H](NC(=O)OC)C(C)C)[nH]4)cc3)cc2)[nH]1)C(C)C (mixture of isomers) | 1.58 nM | > 31.6 nM |  |
| COC(=O)N[C@H](C(=O)N1CC2(CCN(C(=O)OC(C)(C)C)CC2)CC1c1ncc(-c2ccc(-c3ccc(-c4cnc([C@@H]5CCCN5C(=O)[C@@H](NC(=O)OC)C(C)C)[nH]4)cc3)cc2)[nH]1)C(C)C (mixture of isomers) | 0.0398 nM | 10 nM |  |
| COC(=O)N[C@H](C(=O)N1CCC[C@H]1c1ncc(-c2ccc(-c3ccc(-c4cnc(C5CCC6(CCS(=O)(=O)CC6)N5C(=O)[C@@H](NC(=O)OC)C(C)C)[nH]4)cc3)cc2)[nH]1)C(C)C (stereo partly specified) | 0.316 nM | 12.6 nM |  |
| CC(=O)N1CCC[C@H]1c1ncc(-c2ccc(-c3ccc(-c4cnc([C@@H]5CCCN5C(C)=O)[nH]4)cc3)cc2)[nH]1 | 126 nM | 794 nM |  |
| COC(=O)N[C@H](C(=O)N1CCC[C@H]1c1ncc(-c2ccccc2)[nH]1)C(C)C | 200 nM | 501 nM |  |
| COC(=O)N[C@H](C(=O)N1CC2(CC1c1ncc(-c3ccc(-c4ccc(-c5cnc([C@@H]6CCCN6C(=O)[C@@H](NC(=O)OC)C(C)C)[nH]5)cc4)cc3)[nH]1)CN(S(C)(=O)=O)C2)C(C)C (mixture of isomers) | 0.0501 nM | 1.26 nM |  |
| COC(=O)N[C@H](C(=O)N1CCC[C@H]1c1ncc(-c2ccc(-c3ccc(-c4cnc(C5CCC6(CCOCC6)N5C(=O)[C@@H](NC(=O)OC)C(C)C)[nH]4)cc3)cc2)[nH]1)C(C)C (stereo partly specified) | 0.0631 nM | 1.58 nM |  |
| COC(=O)N[C@H](C(=O)N1CC2(CCN(C(C)=O)CC2)CC1c1ncc(-c2ccc(-c3ccc(-c4cnc([C@@H]5CCCN5C(=O)[C@@H](NC(=O)OC)C(C)C)[nH]4)cc3)cc2)[nH]1)C(C)C (mixture of isomers) | 0.2 nM | 10 nM |  |

Further lines, with some results ahead:

| EC50 (Hepatitis C virus [1]) | EC50 (Hepatitis C virus [2]) | Compound | also measured |
| --- | --- | --- | --- |
| 0.01 nM | 0.631 nM | COC(=O)N[C@@H](C)C(=O)N1C(c2ncc(-c3ccc(-c4ccc(-c5cnc([C@@H]6CCCN6C(=O)[C@@H](NC(=O)OC)C(C)C)[nH]5)cc4)cc3)[nH]2)CCC12CCC(F)(F)CC2 (stereo partly specified) |  |
| 0.00794 nM | 0.0251 nM | COC(=O)N[C@H](C(=O)N1CCC[C@H]1c1ncc(-c2ccc(-c3ccc(-c4cnc([C@@H]5CC6(CN5C(=O)[C@@H](NC(=O)OC)C(C)C)OCCCO6)[nH]4)cc3)cc2)[nH]1)C(C)C |  |
| 0.0158 nM | 0.0631 nM | COC(=O)N[C@H](C(=O)N1CC2(CCOCC2)CC1c1ncc(-c2ccc(-c3ccc(-c4cnc([C@@H]5CCCN5C(=O)[C@@H](NC(=O)OC)C(C)C)[nH]4)cc3)cc2)[nH]1)C(C)C (mixture of isomers) |  |
| 0.002 nM | 1.58 nM | COC(=O)N[C@H](C(=O)N1CCC[C@H]1c1ncc(-c2ccc(-c3ccc(-c4cnc([C@@H]5COC6(CCOCC6)N5C(=O)OCc5ccccc5)[nH]4)cc3)cc2)[nH]1)C(C)C |  |
| 0.00251 nM | 0.794 nM | COC(=O)N[C@H](C(=O)N1CCC[C@H]1c1ncc(-c2ccc(-c3ccc(-c4cnc([C@@H]5CC6(CN5C(=O)[C@@H](NC(=O)OC)C(C)C)OCC(C)(C)CO6)[nH]4)cc3)cc2)[nH]1)C(C)C |  |
| 0.00631 nM | 6.31 nM | COC(=O)N[C@H](C(=O)N1CCC[C@H]1c1ncc(-c2ccc(-c3ccc(-c4cnc(C5CCC6(CCOCC6)N5C(=O)OCc5ccccc5)[nH]4)cc3)cc2)[nH]1)C(C)C (stereo partly specified) |  |
| 0.00501 nM | 0.631 nM | COC(=O)NCC(=O)N1CC2(C[C@H]1c1ncc(-c3ccc(-c4ccc(-c5cnc([C@@H]6CCCN6C(=O)[C@@H](NC(=O)OC)C(C)C)[nH]5)cc4)cc3)[nH]1)SCCS2 |  |
| 0.01 nM | 1 nM | COC(=O)N[C@H](C(=O)N1CC2(CC1c1ncc(-c3ccc(-c4ccc(-c5cnc([C@@H]6CCCN6C(=O)[C@@H](NC(=O)OC)C(C)C)[nH]5)cc4)cc3)[nH]1)CN(C(=O)OC(C)(C)C)C2)C(C)C (mixture of isomers) |  |
| 0.0126 nM | 0.316 nM | COC(=O)N[C@H](C(=O)N1CCC[C@H]1c1ncc(-c2ccc(-c3ccc(-c4cnc(C5CCC6(CCOCC6)N5C(C)=O)[nH]4)cc3)cc2)[nH]1)C(C)C (stereo partly specified) |  |
| 0.00398 nM | 0.0631 nM | CC[C@H](NC(=O)OC)C(=O)N1CC2(C[C@H]1c1ncc(-c3ccc(-c4ccc(-c5cnc([C@@H]6CCCN6C(=O)[C@@H](NC(=O)OC)C(C)C)[nH]5)cc4)cc3)[nH]1)SCCS2 |  |
| 0.0126 nM | 2 nM | COC(=O)N[C@H](C(=O)N1CCC[C@H]1c1ncc(-c2ccc(-c3ccc(-c4cnc([C@@H]5CC6(CN5C(=O)[C@@H](NC(=O)OC)C(C)C)O[C@@H](C)C[C@H](C)O6)[nH]4)cc3)cc2)[nH]1)C(C)C (stereo partly specified) |  |
| 0.00631 nM | 1.58 nM | CN(C)[C@@H](C(=O)N1CCC[C@H]1c1ncc(-c2ccc(-c3ccc(-c4cnc([C@@H]5COC6(CCOCC6)N5C(=O)OCc5ccccc5)[nH]4)cc3)cc2)[nH]1)c1ccccc1 |  |
| 0.0126 nM | 2 nM | COC(=O)N[C@@H](CC(C)C)C(=O)N1C(c2ncc(-c3ccc(-c4ccc(-c5cnc([C@@H]6CCCN6C(=O)[C@@H](NC(=O)OC)C(C)C)[nH]5)cc4)cc3)[nH]2)CCC12CCC(F)(F)CC2 (stereo partly specified) |  |
| 0.00398 nM | 0.1 nM | COC(=O)N[C@H](C(=O)N1CC2(CC1c1ncc(-c3ccc(-c4ccc(-c5cnc([C@@H]6CCCN6C(=O)[C@@H](NC(=O)OC)C(C)C)[nH]5)cc4)cc3)[nH]1)CC(F)(F)C2)C(C)C (mixture of isomers) |  |
| 0.00398 nM | 0.0794 nM | COC(=O)N[C@H](C(=O)N1CCC[C@H]1c1ncc(-c2ccc(-c3ccc(-c4cnc([C@@H]5CC6(CN5C(=O)[C@@H](NC(=O)OC)C(C)C)SCCS6)[nH]4)cc3)cc2)[nH]1)C(C)C |  |

— ChEMBL document CHEMBL3120061, “Novel spiroketal pyrrolidine GSK2336805 potently inhibits key hepatitis C virus genotype 1b mutants: from lead to clinical compound” (J Med Chem, 2014)
